In patent publication US8232401B2 (Japan Tobacco Inc., priority 2002, dated 2012):

Biological target: T1, HIV integrase (Human immunodeficiency virus type 1 group M subtype B, UniProt P12497, F1332H)
T1 construct: HIV integrase full length gene; made in house; host or cells: Escherichia coli BL21(DE3)
Assay: Determination of enzyme (HIV integrase) inhibitory activity (strand transfer, microtiter plate, absorbance at 450 nm)
Assay type: biochemical, HIV (Human Immunodeficiency Virus (type 1))
Details: recombinant HIV integrase (F185H) expressed in E. coli; donor DNA on streptavidin plate, digoxigenin target DNA; 37° C.
Procedure: The following explains evaluation methods of the HIV integrase inhibitory activity of the compound of the present invention.
(i) Construction of Recombinant Integrase Gene Expression System
(ii) Production and Purification of Integrase Protein
Escherichia coli recombinant BL21(DE3) transformed with plasmid pET21a-IN-F185H obtained in (i) was shake cultured at 30° C. in a liquid medium containing ampicillin. When the culture reached the logarithmic growth phase, isopropyl-β-D-thiogalactopyranoside was added to promote expression of integrase gene. The culture was continued for 3 hrs to promote accumulation of the integrase protein. The recombinant E. coli was collected in pellets by centrifugal separation and preserved at −80° C.
The E. coli was suspended in Lysis buffer (20 mM HEPES (pH 7.5), 5 mM DTT, 10 mM CHAPS, 10% glycerol) containing 1M sodium chloride and subjected to repeat pressurization and depressurization for rupture, and centrifugal separation at 4° C., 40,000×g, 60 min to recover a water-soluble fraction (supernatant). This was diluted 10-fold with Lysis buffer free of sodium chloride, mixed with SP-Sepharose (Pharmacia Corporation) and stirred at 4° C. for 60 min to allow adsorption of integrase protein to the resin. The resin was washed with Lysis buffer containing 100 mM sodium chloride and the integrase protein was eluted with Lysis buffer containing 1M sodium chloride.
The eluted integrase protein solution was applied to a Superdex 75 (Pharmacia Corporation) column for gel filtration. The protein was eluted with Lysis buffer containing 1M sodium chloride.
The obtained fractions of the integrate protein were collected and preserved at −80° C.
(iii) Preparation of DNA Solution
The following DNA synthesized by Greiner was dissolved in TE buffer (10 mM Tris-hydrochloric acid (pH 8.0), 1 mM EDTA) and mixed with donor DNA, target DNA, each complementary strand (+ and − strands) to 1 μM. The mixture was heated at 95° C. for 5 min, 80° C. for 10 min, 70° C. for 10 min, 60° C. for 10 min, 50° C. for 10 min and 40° C. for 10 min and preserved at 25° C. to give a double stranded DNA, which was used for the test. Donor DNA (− strand having biotin attached to the 5′ terminal)
(iv) Determination of Enzyme (HIV Integrase) Inhibitory activity
The donor DNA was diluted with TE buffer to 10 nM, of which 50 μl was added to each well of streptavidin-coated microtiter plate (Roche) and allowed to adsorb at 37° C. for 60 min. The DNA was washed with phosphate buffer (Dulbecco PBS, Sanko Junyaku Co., Ltd.) containing 0.1% Tween 20 and phosphate buffer. Then, a reaction mixture (70 μl) having the following composition, a test substance (10 μl) diluted with the reaction mixture and […] integrase protein (10 μl) were added to each well and reacted at 37° C. for 60 min.
Then, 50 nM target DNA (1.0 μl) was added, reacted at 37° C. for 10 min and washed with phosphate buffer containing 0.1% Tween 20 to stop the reaction.
Then, 100 mU/ml peroxidase labeled anti-digoxigenin antibody solution (Roche, 100 μl) was added, and the mixture was reacted at 37° C. for 60 min, followed by washing with phosphate buffer containing 0.1% Tween 20.
A peroxidase color solution (Bio Rad, 100 μl) was added and allowed to react at room temperature for 4 min. The color reaction was stopped by adding 1N sulfuric acid (100 μl). The absorbance at 450 nm was measured.
The HIV integrase inhibitory activity (IC50) of the compound of the present invention was calculated from the inhibition rate according to the following formula. […] Evaluation of Antiviral Activity

Row | SMILES | IC50 [nM]
1 | CCC[C@@H](CO)n1cc(C(=O)O)c(=O)c2cc(Cc3cccc(Cl)c3F)cc(OC)c21 [Example 4-49, (S)-6-(3-Chloro-2-fluorobenzyl)-1-[1-(hydroxymethyl)butyl]-8-methoxy-4-oxo-1,4-dihydroquinoline-3-carboxylic acid] | 5.7
2 | COc1cc2c(cc1Cc1cccc(Cl)c1F)c(=O)c(C(=O)O)cn2[C@H](CO)C(C)(C)C [Example 4-33, (S)-6-(3-Chloro-2-fluorobenzyl)-1-[2,2-dimethyl-1-(hydroxymethyl)propyl]-7-methoxy-4-oxo-1,4-dihydroquinoline-3-carboxylic acid] | 2
3 | COc1cc(Cc2cccc(Cl)c2F)cc2c(=O)c(C(=O)O)cn([C@@H](C)CO)c12 [Example 3-56, (S)-6-(3-Chloro-2-fluorobenzyl)-1-(2-hydroxy-1-methylethyl)-8-methoxy-4-oxo-1,4-dihydroquinoline-3-carboxylic acid] | 12
4 | C[C@@H](CO)n1cc(C(=O)O)c(=O)c2cc(Cc3cccc(Cl)c3F)cc(N(C)C)c21 [Example 3-80, (S)-6-(3-Chloro-2-fluorobenzyl)-8-dimethylamino-1-(2-hydroxy-1-methylethyl)-4-oxo-1,4-dihydroquinoline-3-carboxylic acid] | 8.8
5 | CCC[C@@H](CO)n1cc(C(=O)O)c(=O)c2cc(Cc3cccc(Cl)c3F)c(OC(C)C)cc21 [Example 4-35] | 4.3
6 | O=C(O)c1cn(CCO)c2ccc(Cc3ccc(F)cc3Cl)cc2c1=O [Example 1-51, 6-(2-Chloro-4-fluorobenzyl)-1-(2-hydroxyethyl)-4-oxo-1,4-dihydroquinoline-3-carboxylic acid] | 180
7 | O=C(O)c1cn(CCO)c2ccc(Cc3ccccc3Cl)cc2c1=O [Example 1-87, 6-(2-Chlorobenzyl)-1-(2-hydroxyethyl)-4-oxo-1,4-dihydroquinoline-3-carboxylic acid] | 140
8 | CN(C)c1ccccc1Cc1ccc2c(c1)c(=O)c(C(=O)O)cn2CCO [Example 3-8, 6-(2-Dimethylaminobenzyl)-1-(2-hydroxyethyl)-4-oxo-1,4-dihydroquinoline-3-carboxylic acid] | 340
9 | CC(C)Oc1cc2c(cc1Cc1cccc(Cl)c1F)c(=O)c(C(=O)O)cn2[C@H](CO)C(C)C [Example 4-19, (S)-6-(3-Chloro-2-fluorobenzyl)-1-(1-hydroxymethyl-2-methylpropyl)-7-isopropyloxy-4-oxo-1,4-dihydroquinoline-3-carboxylic acid] | 2.9
10 | O=C(O)c1cn(CCO)c2ccc(Cc3c(F)cccc3Cl)cc2c1=O [Example 1-64] | 56
11 | CCOc1cc(Cc2cccc(Cl)c2F)cc2c(=O)c(C(=O)O)cn([C@@H](CC)CO)c12 [Example 4-21, (S)-6-(3-Chloro-2-fluorobenzyl)-8-ethoxy-1-[1-(hydroxymethyl)propyl]-4-oxo-1,4-dihydroquinoline-3-carboxylic acid] | 4.5
12 | CC(C)Cn1cc(C(=O)O)c(=O)c2cc(Cc3cccc(Cl)c3Cl)ccc21 [Example 1-18, 6-(2,3-Dichlorobenzyl)-1-isobutyl-4-oxo-1,4-dihydroquinoline-3-carboxylic acid] | 120
13 | CC[C@@H](CO)n1cc(C(=O)O)c(=O)c2cc(Cc3cccc(Cl)c3F)c(OC)cc21 [Example 3-73, (S)-6-(3-Chloro-2-fluorobenzyl)-1-[1-(hydroxymethyl)propyl]-7-methoxy-4-oxo-1,4-dihydroquinoline-3-carboxylic acid] | 3.3
14 | O=C(O)c1cn(Cc2ccc(Cl)c(Cl)c2)c2ccc(Cc3cccc(Cl)c3Cl)cc2c1=O [Example 1-23, 6-(2,3-dichlorobenzyl)-1-(3,4-dichlorobenzyl)-4-oxo-1,4-dihydroquinoline-3-carboxylic acid] | 190
15 | O=C(O)c1cc2c(cc1Cc1cccc(Cl)c1Cl)c(=O)c(C(=O)O)cn2CCO [Example 3-36, 7-Carboxy-6-(2,3-dichlorobenzyl)-1-(2-hydroxyethyl)-4-oxo-1,4-dihydroquinoline-3-carboxylic acid] | 51
16 | CC(C)(CO)n1cc(C(=O)O)c(=O)c2cc(Cc3cccc(Cl)c3F)ccc21 [Example 3-43, 6-(3-Chloro-2-fluorobenzyl)-1-(1,1-dimethyl-2-hydroxyethyl)-4-oxo-1,4-dihydroquinoline-3-carboxylic acid] | 18
17 | CN(C)S(=O)(=O)Cn1cc(C(=O)O)c(=O)c2cc(Cc3cccc(Cl)c3Cl)ccc21 [Example 1-72, 6-(2,3-Dichlorobenzyl)-1-dimethylsulfamoylmethyl-4-oxo-1,4-dihydroquinoline-3-carboxylic acid] | 25
18 | O=C(O)c1cn(CCO)c2cc(OCCCO)c(Cc3cccc(Cl)c3F)cc2c1=O [Example 3-77, 6-(3-Chloro-2-fluorobenzyl)-1-(2-hydroxyethyl)-1-7-(3-hydroxypropyloxy)-4-oxo-1,4-dihydroquinoline-3-carboxylic acid] | 8.9
19 | O=C(O)c1cn(CCO)c2ccc(Cc3c(F)ccc(F)c3Cl)cc2c1=O [Example 1-73, 6-(2-Chloro-3,6-difluorobenzyl)-1-(2-hydroxyethyl)-4-oxo-1,4-dihydroquinoline-3-carboxylic acid] | 31
20 | CCOc1cc(Cc2cccc(Cl)c2F)cc2c(=O)c(C(=O)O)cn([C@H](CO)C3CCCCC3)c12 [Example 4-41, (S)-6-(3-Chloro-2-fluorobenzyl)-1-(1-cyclohexyl-2-hydroxyethyl)-8-ethoxy-4-oxo-1,4-dihydroquinoline-3-carboxylic acid] | 2.3
21 | CC[C@H](C)[C@@H](CO)n1cc(C(=O)O)c(=O)c2cc(Cc3cccc(Cl)c3F)c(OC)cc21 [Example 4-27, 6-(3-Chloro-2-fluorobenzyl)-1-((1S,2S)-1-hydroxymethyl-2-methylbutyl)-7-methoxy-4-oxo-1,4-dihydroquinoline-3-carboxylic acid] | 2.9
22 | COc1c(Cl)cccc1Cc1ccc2c(c1)c(=O)c(C(=O)O)cn2CCO [Example 3-3, 6-(3-Chloro-2-methoxybenzyl)-1-(2-hydroxyethyl)-4-oxo-1,4-dihydroquinoline-3-carboxylic acid] | 190
23 | O=C(O)c1cn(CCO)c2ccc(Cc3cccc(Cl)c3Cl)c(O)c2c1=O [Example 3-5, 6-(2,3-Dichlorobenzyl)-5-hydroxy-1-(2-hydroxyethyl)-4-oxo-1,4-dihydroquinoline-3-carboxylic acid] | 24
24 | CNn1cc(C(=O)O)c(=O)c2cc(Cc3cccc(Cl)c3Cl)ccc21 [Example 2-7, 6-(2,3-Dichlorobenzyl)-1-methylamino-4-oxo-1,4-dihydroquinoline-3-carboxylic acid] | 79
25 | O=C(O)c1cn(CCCCc2ccccc2)c2ccc(Cc3cccc(Cl)c3Cl)cc2c1=O [Example 1-19, 6-(2,3-Dichlorobenzyl)-1-(4-phenylbutyl)-4-oxo-1,4-dihydroquinoline-3-carboxylic acid] | 81
26 | CS(=O)(=O)NCCn1cc(C(=O)O)c(=O)c2cc(Cc3cccc(Cl)c3Cl)ccc21 [Example 1-3, 6-(2,3-Dichlorobenzyl)-1-(2-methanesulfonylaminoethyl)-4-oxo-1,4-dihydroquinoline-3-carboxylic acid] | 360
27 | O=C(O)c1cn(CCCCCO)c2ccc(Cc3cccc(Cl)c3Cl)cc2c1=O [Example 1-34, 6-(2,3-Dichlorobenzyl)-1-(5-hydroxypentyl)-4-oxo-1,4-dihydroquinoline-3-carboxylic acid] | 350
28 | CCN(CC)c1cc(Cc2cccc(Cl)c2F)cc2c(=O)c(C(=O)O)cn(CCO)c12 [Example 3-64, 6-(3-Chloro-2-fluorobenzyl)-8-diethylamino-1-(2-hydroxyethyl)-4-oxo-1,4-dihydroquinoline-3-carboxylic acid] | 18
